Measured values reported in patent publication US10383868B2, “Quinoline containing compounds and their use for treating endoplasmic reticulum stress-related diseases” (priority 2015, dated 2019).

Assays:
Ob/ob mice = experiment: Effect of a SERCA agonist on the level of blood glucose in ob/ob mice; assay type: in vivo; details: n=3; for Blood Glucose Day 0: Day 0 (baseline), fasting glucose, 50 mg/kg i.p. group; for Blood Glucose Day 4: Day 4, fasting glucose, 50 mg/kg i.p. once a day
Method: Ob/ob mice (10 weeks old, n=3) are intraperitoneally (i.p.) injected with 100 μL of a solution containing 0 (vehicle), 10 or 50 mg/kg of a test compound once a day for a total of 5 days. Fasting glucose is measured at baseline and 10 hrs after the administration of the test compound. Glucose levels are measured in blood samples drawn from the tail vein using the OneTouch Ultra 2 Meter (LifeScan, Inc.).

SERCA = experiment: Activation of SERCA, NADH-linked, enzyme-coupled ATPase assay with SR vesicles; assay type: biochemical; details: concentration required for 50% activation of the maximum Vmax, pH 7.0, 5 mM ATP
Method: Test compounds were characterized over a range of concentrations using an NADH-linked, enzyme-coupled ATPase assay. Each well contained […] of SR vesicles (optimized for skeletal or cardiac SR, respectively), 50 mM MOPS (pH 7.0), 100 mM KCl, 5 mM MgCl2, 1 mM EGTA, 0.2 mM NADH, 1 mM phosphoenol pyruvate, 5 IU pyruvate kinase, 5 IU lactate dehydrogenase, and […] A23187 (a calcium ionophore), and CaCl2 was added to set free [Ca^2+] to the specific values. The assay was started upon addition of ATP at a final concentration of 5 mM, and read in a SpectraMax Plus microplate spectrophotometer and the ATPase activities were fitted using the Hill function. EC50 values were determined as the concentrations of the test compounds that were required for 50% activation of the maximum Vmax.

EC50 (SERCA) | SMILES | Blood Glucose Day 0 (Ob/ob mice) | Blood Glucose Day 4 (Ob/ob mice)
600 nM | Cc1ccc2cccc(C(=O)Nc3ccc(OC(C)C)cc3)c2n1 [Compound A1, N-(4-Isopropoxyphenyl)-2-methylquinoline-8-carboxamide] | 319 mg/dL | 348 mg/dL
1200 nM | Cc1ccc2cccc(C(=O)Nc3cc(Br)cs3)c2n1 [Compound B1] | 318 mg/dL | 333 mg/dL
1000 nM | Cc1ccc2cccc(C(=O)Nc3ccc(Br)s3)c2n1 [Compound B2] | 320 mg/dL | 215 mg/dL
